Key:
[1] = mn = molality of the nth substance listed, in mol/kg; conditions: 101 kPa, Liquid; for mass density: Vibrating tube method; for viscosity: Capillary tube (Ostwald / Ubbelohde) method
[2] = 101 kPa, Liquid; for viscosity: Capillary tube (Ostwald / Ubbelohde) method; for mass density: Vibrating tube method

O [water] + Cc1ccc(N)cc1N
[1], m2 = 0
Conditions | mass density [kg/m3]
323.15 K | 988.04
333.15 K | 983.2

Cc1ccc(N)cc1N [4-methyl-1,3-benzendiamine] + CCCCO
[1]
Conditions | mass density, 293.15 K [kg/m3] | mass density, 303.15 K [kg/m3] | mass density, 313.15 K [kg/m3] | mass density, 323.15 K [kg/m3] | mass density, 333.15 K [kg/m3] | viscosity, 293.15 K [mPa·s] | viscosity, 303.15 K [mPa·s] | viscosity, 313.15 K [mPa·s] | viscosity, 323.15 K [mPa·s] | viscosity, 333.15 K [mPa·s]
m1 = 0.0497 | 811.16 | 803.49 | 795.7 | 787.74 | 779.59 | 2.922 | 2.237 | 1.731 | 1.357 | 1.076
m1 = 0.0997 | 812.62 | 804.93 | 797.13 | 789.15 | 781 | 2.939 | 2.246 | 1.736 | 1.362 | 1.079
m1 = 0.1501 | 814.06 | 806.37 | 798.55 | 790.56 | 782.41 | 2.954 | 2.258 | 1.746 | 1.367 | 1.083
m1 = 0.1999 | 815.48 | 807.77 | 799.94 | 791.94 | 783.78 | 2.972 | 2.269 | 1.751 | 1.372 | 1.087
m1 = 0.2491 | 816.86 | 809.14 | 801.3 | 793.29 | 785.12 | 2.994 | 2.279 | 1.759 | 1.377 | 1.091

CCCCO [butan-1-ol] + Cc1c(N)cccc1N
[1], m2 = 0
Conditions | mass density [kg/m3] | viscosity [mPa·s]
293.15 K | 809.69 | 2.908
303.15 K | 802.04 | 2.225
313.15 K | 794.27 | 1.723
323.15 K | 786.32 | 1.351
333.15 K | 778.16 | 1.071

Cc1c(N)cccc1N [2,6-diaminotoluene] + CCCCO
[1]
Conditions | mass density, 293.15 K [kg/m3] | mass density, 303.15 K [kg/m3] | mass density, 313.15 K [kg/m3] | mass density, 323.15 K [kg/m3] | mass density, 333.15 K [kg/m3] | viscosity, 293.15 K [mPa·s] | viscosity, 303.15 K [mPa·s] | viscosity, 313.15 K [mPa·s] | viscosity, 323.15 K [mPa·s] | viscosity, 333.15 K [mPa·s]
m1 = 0.05 | 811.28 | 803.61 | 795.81 | 787.85 | 779.68 | 2.922 | 2.233 | 1.728 | 1.356 | 1.075
m1 = 0.0995 | 812.81 | 805.13 | 797.31 | 789.34 | 781.16 | 2.941 | 2.246 | 1.735 | 1.361 | 1.078
m1 = 0.1499 | 814.34 | 806.66 | 798.81 | 790.84 | 782.65 | 2.96 | 2.259 | 1.746 | 1.368 | 1.085
m1 = 0.1994 | 815.82 | 808.13 | 800.27 | 792.28 | 784.08 | 2.978 | 2.268 | 1.755 | 1.374 | 1.087
m1 = 0.2495 | 817.27 | 809.58 | 801.7 | 793.7 | 785.5 | 3.001 | 2.291 | 1.764 | 1.379 | 1.093

CCCCO [butan-1-ol] + Cc1ccc(N)cc1N
[1], m2 = 0
Conditions | mass density [kg/m3] | viscosity [mPa·s]
293.15 K | 809.69 | 2.908
303.15 K | 802.04 | 2.225
313.15 K | 794.27 | 1.723
323.15 K | 786.32 | 1.351
333.15 K | 778.16 | 1.071

CCO [ethanol] + Cc1c(N)cccc1N
[1], m2 = 0
Conditions | mass density [kg/m3] | viscosity [mPa·s]
293.15 K | 789.56 | 1.179
303.15 K | 780.98 | 0.972
313.15 K | 772.22 | 0.806
323.15 K | 763.29 | 0.672
333.15 K | 754.18 | 0.564

CCCO [propan-1-ol] + Cc1ccc(N)cc1N
[1], m2 = 0
Conditions | mass density [kg/m3] | viscosity [mPa·s]
293.15 K | 803.86 | 2.171
303.15 K | 795.54 | 1.696
313.15 K | 787.37 | 1.338
323.15 K | 779.01 | 1.067
333.15 K | 770.42 | 0.859

CCCO [propan-1-ol]
[2]
Conditions | mass density [kg/m3] | viscosity [mPa·s]
293.15 K | 803.86 | 2.171
303.15 K | 795.54 | 1.696
313.15 K | 787.37 | 1.338
323.15 K | 779.01 | 1.067
333.15 K | 770.42 | 0.859

Reference: the NIST ThermoML archive (doi:10.1021/je400968v)
